Reference: the supplement of paper PMC11061612

Legend:
Assay in all cases: combination Emax (second highest fraction inhibited in the dose matrix, 72 h); higher = more inhibition; extreme values may be limits of the assay
[1] = system: HCC1143 (Breast Carcinoma)
How it was run: (§1)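 Cell lines grown in DMEM/F12 or RPMI with 10% FBS were plated in 1536-well plates and held 24 hours at 37°C, 5% CO2 before 72 hours of exposure to two-drug dose matrices, with DMSO typically at 0.2%. CellTiter-Glo 2.0 luminescence gave viability, which was converted to inhibition. Vehicle wells were set to 0 and blank wells to 1. Combination Emax is the second-highest inhibition in the matrix, and Bliss excess is the observed combination effect minus the expected EA + EB − EA·EB, where EA and EB are the single-agent effects.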

MSTO-211H (Mesothelioma) = system: MSTO-211H (Mesothelioma)
How it was run: as §1

SK-MEL-1 (Melanoma) = system: SK-MEL-1 (Melanoma)
How it was run: as §1

[2] = system: GDM-1 (Acute Myeloid Leukemia)
How it was run: as §1

CS1 (Chondrosarcoma) = system: CS1 (Chondrosarcoma)
How it was run: as §1

[3] = system: EFM-192A (Breast Carcinoma)
How it was run: as §1

[4] = system: NCI-H1688 (Small Cell Lung Carcinoma)
How it was run: as §1

[5] = system: HLE (Hepatocellular Carcinoma)
How it was run: as §1

D-392MG (Glioblastoma) = system: D-392MG (Glioblastoma)
How it was run: as §1

[6] = system: JHH-6 (Hepatocellular Carcinoma)
How it was run: as §1

HuO9 (Osteosarcoma) = system: HuO9 (Osteosarcoma)
How it was run: as §1

[7] = system: DOK (Oral Cavity Carcinoma)
How it was run: as §1

EW-22 (Ewing's Sarcoma) = system: EW-22 (Ewing's Sarcoma)
How it was run: as §1

[8] = system: SNG-M (Endometrial Carcinoma)
How it was run: as §1

[9] = system: YT (Other Blood Carcinomas)
How it was run: as §1

[10] = system: HCC-827 (Lung Adenocarcinoma)
How it was run: as §1

[11] = system: CAL-39 (Other Solid Carcinomas)
How it was run: as §1

[12] = system: PA-TU-8902 (Pancreatic Carcinoma)
How it was run: as §1

[13] = system: D-283MED (Other Solid Carcinomas)
How it was run: as §1

[14] = system: SW948 (Colorectal Carcinoma)
How it was run: as §1

Row | SMILES | combination Emax [1] | combination Emax (MSTO-211H (Mesothelioma)) | combination Emax (SK-MEL-1 (Melanoma)) | combination Emax [2] | combination Emax (CS1 (Chondrosarcoma)) | combination Emax [3] | combination Emax [4] | combination Emax [5] | combination Emax (D-392MG (Glioblastoma)) | combination Emax [6] | combination Emax (HuO9 (Osteosarcoma)) | combination Emax [7] | combination Emax (EW-22 (Ewing's Sarcoma)) | combination Emax [8] | combination Emax [9] | combination Emax [10] | combination Emax [11] | combination Emax [12] | combination Emax [13] | combination Emax [14]
1 | CC1(C)CCC(CN2CCN(c3ccc(C(=O)NS(=O)(=O)c4ccc(NCC5CCOCC5)c([N+](=O)[O-])c4)c(Oc4cnc5[nH]ccc5c4)c3)CC2)=C(c2ccc(Cl)cc2)C1 [Venetoclax] + C[C@@H]1COCCN1C2=NC(=NC(=C2)C3(CC3)[S@](=N)(=O)C)C4=C5C=CNC5=NC=C4 [AZD6738] (first compound max 1 µM, 7x7, partner max 10 µM) | 0.821 | 0.596 | 0.391 | 0.946 | 0.701 | 0.299 | 0.451 | 0.642 | 0.339 | 0.459 | 0.814 | 0.414 | 0.929 | 0.894 | 0.852 | 0.33 | 0.397 | 0.344 | 0.954 | 0.595
2 | CC1(C)CCC(CN2CCN(c3ccc(C(=O)NS(=O)(=O)c4ccc(NCC5CCOCC5)c([N+](=O)[O-])c4)c(Oc4cnc5[nH]ccc5c4)c3)CC2)=C(c2ccc(Cl)cc2)C1 [Venetoclax] + C[C@@H](Nc1cc(F)cc(F)c1)c1cc(C(=O)N(C)C)cc2c(=O)cc(N3CCOCC3)oc12 [AZD8186] (first compound max 1 µM, 7x7, partner max 3 µM) | 0.246 | 0.207 | 0.198 | 0.934 | 0.415 | 0.178 | 0.191 | 0.504 | 0.139 | 0.193 | 0.468 | 0.188 | 0.881 | 0.655 | 0.631 | 0.254 | 0.841 | 0.115 | 0.615 | 0.264
3 | CC1(C)CCC(CN2CCN(c3ccc(C(=O)NS(=O)(=O)c4ccc(NCC5CCOCC5)c([N+](=O)[O-])c4)c(Oc4cnc5[nH]ccc5c4)c3)CC2)=C(c2ccc(Cl)cc2)C1 [Venetoclax] + Cc1cc2ncnn2cc1Nc1ncc2c(n1)n(C1CCOCC1)c(=O)n2C [AZD7648] (first compound max 1 µM, 7x7, partner max 10 µM) | 0.253 | 0.22 | 0.308 | 0.842 | 0.297 | 0.25 | 0.245 | 0.215 | 0.178 | 0.212 | 0.426 | 0.247 | 0.842 | 0.131 | 0.732 | 0.292 | 0.247 | 0.236 | 0.673 | 0.459
4 | CC1(C)CCC(CN2CCN(c3ccc(C(=O)NS(=O)(=O)c4ccc(NCC5CCOCC5)c([N+](=O)[O-])c4)c(Oc4cnc5[nH]ccc5c4)c3)CC2)=C(c2ccc(Cl)cc2)C1 [Venetoclax] + Cn1cnc2c(F)c(Nc3ccc(Br)cc3Cl)c(C(=O)NOCCO)cc21 [Selumetinib] (first compound max 1 µM, 7x7, partner max 3 µM) | 0.275 | 0.172 | 0.872 | 0.735 | 0.278 | 0.11 | 0.121 | 0.191 | 0.161 | 0.222 | 0.177 | 0.407 | 0.855 | 0.2 | 0.429 | 0.184 | 0.535 | 0.26 | 0.523 | 0.577
